Key:
[1] = biological target: T1, Trifunctional purine biosynthetic protein adenosine-3 (Mus musculus, UniProt Q64737); experiment: Thermodynamic dissociation constant (KD) was measured upon binding to GAR TFase in mice
T1 sequence (Q64737 whole entry): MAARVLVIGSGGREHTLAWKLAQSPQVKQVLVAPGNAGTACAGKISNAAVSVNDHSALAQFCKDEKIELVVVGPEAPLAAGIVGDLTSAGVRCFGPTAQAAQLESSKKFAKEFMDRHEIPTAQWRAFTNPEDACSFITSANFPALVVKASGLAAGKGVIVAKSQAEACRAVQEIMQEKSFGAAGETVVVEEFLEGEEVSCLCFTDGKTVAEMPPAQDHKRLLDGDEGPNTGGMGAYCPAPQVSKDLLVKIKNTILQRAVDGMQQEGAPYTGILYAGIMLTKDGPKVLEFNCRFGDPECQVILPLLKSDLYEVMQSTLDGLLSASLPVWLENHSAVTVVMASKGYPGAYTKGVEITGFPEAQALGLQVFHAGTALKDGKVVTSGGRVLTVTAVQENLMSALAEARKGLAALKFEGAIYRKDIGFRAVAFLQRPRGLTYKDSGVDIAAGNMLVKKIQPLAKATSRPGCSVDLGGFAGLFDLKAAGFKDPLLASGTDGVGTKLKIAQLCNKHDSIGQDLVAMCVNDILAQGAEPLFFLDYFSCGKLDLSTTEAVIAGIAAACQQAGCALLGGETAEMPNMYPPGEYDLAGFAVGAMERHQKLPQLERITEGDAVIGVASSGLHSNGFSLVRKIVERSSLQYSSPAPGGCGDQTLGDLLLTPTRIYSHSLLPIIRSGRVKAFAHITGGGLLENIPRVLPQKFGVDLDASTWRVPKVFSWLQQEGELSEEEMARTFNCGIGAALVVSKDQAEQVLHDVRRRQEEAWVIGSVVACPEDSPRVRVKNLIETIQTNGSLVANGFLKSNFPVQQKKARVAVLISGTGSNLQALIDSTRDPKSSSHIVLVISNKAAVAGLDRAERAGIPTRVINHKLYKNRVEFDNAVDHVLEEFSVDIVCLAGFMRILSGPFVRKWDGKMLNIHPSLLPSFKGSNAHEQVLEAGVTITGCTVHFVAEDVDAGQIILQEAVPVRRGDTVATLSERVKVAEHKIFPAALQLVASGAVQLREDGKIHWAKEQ

[2] = biological target: T1, Trifunctional purine biosynthetic protein adenosine-3; experiment: Compound was tested for inhibition constant against GAR TFase in mice

Kd [1]: 0.25 nM | Ki [2]: > 100 nM
SMILES: Nc1nc2ccc(CN(C(=O)CSCC(=O)NC3O[C@H](COP(=O)(O)O)[C@@H](O)[C@H]3O)c3ccc(C(=O)N[C@H](CCC(=O)O)C(=O)O)cc3)cc2c(=O)[nH]1 (some centres not stated)

Source: ChEMBL document CHEMBL1124673, “A multisubstrate adduct inhibitor of a purine biosynthetic enzyme with a picomolar dissociation constant” (J Med Chem, 1989)
